The results in this text go back to ChEMBL document CHEMBL3244089, “Structure-activity studies on hallucinogenic amphetamines using molecular connectivity” (1977).

The structures appear in SMILES notation.

For assay [1], the species on record is Homo sapiens. The experiment in a line: Hallucinogenic activity in human relative to mescaline. Format: functional.
For assay [2], the species on record is Homo sapiens. The experiment in a line: Hallucinogenic activity in human. Format: functional.

Consider `COc1ccc(CCN)cc1`, for which the Ratio in the assay listed under Homo sapiens [1] came to 1.
With `COc1cc(CC(C)N)c(OC)c(OC)c1` (stereo not given), the “log(activity)” value in the assay listed under Homo sapiens [2] was found to be 0.63.
Still for that read-out and setting: then `COc1cc2c(cc1CC(C)N)OCO2` (stereo not given), with 1.08.
In the case of `COc1c(CCN)ccc2c1OCO2`, the Ratio in the assay filed under Homo sapiens [1] is reported as 5.
Turning to `COc1cc(CC(C)N)c(OC)c(OC)c1OC` (stereo not given), the “log(activity)” value in the assay listed under Homo sapiens [2] was determined as 0.86.
In the case of `COc1ccc(OC)c(OC)c1CC(C)N` (stereo not given), the “log(activity)” value in the assay listed under Homo sapiens [2] was found to be 1.14.
As to `COc1cc(CC(C)N)c(OC)c2c1OCO2` (stereo not given), in the assay listed under Homo sapiens [2], the “log(activity)” value is listed as 1.13.
Still for that read-out and setting: then `COc1cc(CC(C)N)cc2c1OCO2` (stereo not given), with 0.43.
For the compound `COc1c(CC(C)N)ccc2c1OCO2` (stereo not given), the “log(activity)” value in the assay listed under Homo sapiens [2] worked out at 1. In addition, in the assay listed under Homo sapiens [1], the Ratio stood at 1.
`COc1ccc(CC(C)N)c2c1OCO2` (stereo not given): in the assay filed under Homo sapiens [2], the “log(activity)” value was determined as 0.48.
Same read-out and setting: the value for `CCCCCc1cc(OC)c(CC(C)N)cc1OC` (stereo not given) was 1.09.
Regarding `COc1ccc(CCN)cc1OC`, the Ratio in the assay listed under Homo sapiens [1] came out at 0.2.
Take `COc1ccc(CC(C)N)cc1OC` (stereo not given): the Ratio in the assay filed under Homo sapiens [1] was 2.
For the compound `COc1ccc(CC(C)N)c(OC)c1` (stereo not given), the “log(activity)” value in the assay filed under Homo sapiens [2] turned out to be 0.67.
Still for that read-out and setting: the value for `COc1cc(CC(C)N)cc(OC)c1OC` (stereo not given) was 0.37.
Regarding `COc1ccc(CC(C)N)c(OC)c1OC` (stereo not given), in the assay listed under Homo sapiens [1], the Ratio came to 2.
Still for that read-out and setting: then `CCOc1cc(CC(C)N)c(OC)cc1OC` (stereo not given), with 7.
On the same count and under the same terms, the value for `CCOc1cc2c(cc1CC(C)N)OCO2` (stereo not given) was 7.
`COc1cc(CCN)c2c(c1)OCO2`: in the assay filed under Homo sapiens [1], the Ratio was 1.
In the case of `COc1cc(OC)c(CC(C)N)c(OC)c1` (stereo not given), in the assay filed under Homo sapiens [2], the “log(activity)” value was determined as 1.03.
As for `COc1cc(OC)c(OC)cc1CCN`, the Ratio in the assay listed under Homo sapiens [1] stood at 1.
The same measure, in the same setting: the value for `CN(C)CCc1c[nH]c2cc(O)ccc12` was 25.
Regarding `COc1c(CC(C)N)cc2c(c1OC)OCO2` (stereo not given), in the assay listed under Homo sapiens [2], the “log(activity)” value was found to be 0.75.
For the compound `CCCCc1cc(OC)c(CC(C)N)cc1OC` (stereo not given), the “log(activity)” value in the assay filed under Homo sapiens [2] came out at 1.63.
Same read-out and setting: the value for `CCc1cc(OC)c(CC(C)N)cc1OC` (stereo not given) was 2.01; that for `CCOc1cc(OC)c(CC(C)N)cc1OC` (stereo not given) was 1.22; that for `COc1cc(OC)c(OC)cc1CC(C)N` (stereo not given) was 1.26.
On the same count and under the same terms, then `CCCc1cc(OC)c(CC(C)N)cc1OC` (stereo not given), with 1.94; and `COc1ccc(OC)c(CC(C)N)c1` (stereo not given), with 0.87.
Same read-out and setting: the value for `COc1cc(CC(C)N)c(OC)cc1Br` (stereo not given) [BROLAMFETAMINE] was 2.71; that for `COc1cc(CC(C)N)c(OC)cc1C` (stereo not given) [DOM] was 1.89; that for `COc1ccc(CC(C)N)cc1` (stereo not given) [PARA-METHOXYAMPHETAMINE] was 0.59.
On to `CN(C)CCc1c[nH]c2cccc(O)c12` [PSILOCIN], for which, in the assay filed under Homo sapiens [1], the Ratio is listed as 32.
With `CC(N)Cc1ccc2c(c1)OCO2` (stereo not given) [TENAMFETAMINE], the “log(activity)” value in the assay listed under Homo sapiens [2] is 0.41.
